# Activity calls are given as the source filed them. No cut-off for these calls is given here.
# Legend:
# [1] = biological target: T1, Androgen receptor (Homo sapiens) (UniProt P10275); experiment: Antagonist activity at androgen receptor in human LNCaP cells assessed as reduction in DHT-induced TMPRSS2 mRNA expression after 48 hrs by SYBR green dye based qPCR analysis; type: cell-based; details: filed as antagonist, dose 0.1-10 µM
# T1 sequence (whole entry): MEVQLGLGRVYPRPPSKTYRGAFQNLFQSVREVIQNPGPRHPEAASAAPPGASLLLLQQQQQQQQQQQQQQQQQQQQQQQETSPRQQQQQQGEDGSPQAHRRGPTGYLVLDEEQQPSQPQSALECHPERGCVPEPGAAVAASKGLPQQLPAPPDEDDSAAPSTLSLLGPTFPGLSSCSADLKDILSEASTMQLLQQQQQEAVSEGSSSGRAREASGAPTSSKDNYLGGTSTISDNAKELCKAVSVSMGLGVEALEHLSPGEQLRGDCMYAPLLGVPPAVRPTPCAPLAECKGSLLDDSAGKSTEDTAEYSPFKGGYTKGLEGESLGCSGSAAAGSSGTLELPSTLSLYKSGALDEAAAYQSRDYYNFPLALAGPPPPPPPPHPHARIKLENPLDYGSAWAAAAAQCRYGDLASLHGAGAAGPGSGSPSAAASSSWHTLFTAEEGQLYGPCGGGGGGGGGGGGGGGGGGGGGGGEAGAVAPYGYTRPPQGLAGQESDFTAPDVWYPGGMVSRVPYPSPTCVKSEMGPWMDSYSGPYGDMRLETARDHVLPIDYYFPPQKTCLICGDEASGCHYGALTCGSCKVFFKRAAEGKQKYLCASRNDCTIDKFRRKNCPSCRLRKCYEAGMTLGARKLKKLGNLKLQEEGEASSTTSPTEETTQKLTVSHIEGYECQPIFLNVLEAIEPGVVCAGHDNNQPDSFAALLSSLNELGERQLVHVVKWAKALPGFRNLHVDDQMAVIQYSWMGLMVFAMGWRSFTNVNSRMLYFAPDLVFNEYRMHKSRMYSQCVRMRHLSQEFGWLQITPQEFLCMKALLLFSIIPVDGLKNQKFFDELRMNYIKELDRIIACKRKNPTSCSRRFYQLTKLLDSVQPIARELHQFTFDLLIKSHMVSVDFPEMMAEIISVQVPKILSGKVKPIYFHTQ
# [2] = biological target: T1, Androgen receptor (Homo sapiens); experiment: Antagonist activity at androgen receptor in human LNCaP cells assessed as inhibition of DHT-induced AR nuclear translocation at 10 uM after 12 hrs by immunofluorescence assay; type: cell-based; details: filed as antagonist
# [3] = test system: HeLa; experiment: Cytotoxicity against human HeLa cells assessed as reduction in cell viability at 50 uM incubated for 72 hrs by MTT assay; type: functional, cell-based
# [4] = test system: A549; experiment: Cytotoxicity against human A549 cells assessed as reduction in cell viability at low concentration incubated for 72 hrs by MTT assay; type: functional, cell-based
# [5] = test system: MCF7; experiment: Cytotoxicity against human MCF7 cells assessed as reduction in cell viability at low concentration incubated for 72 hrs by MTT assay; type: functional, cell-based
# [6] = test system: HeLa; experiment: Cytotoxicity against human HeLa cells assessed as reduction in cell viability at low concentration incubated for 72 hrs by MTT assay; type: functional, cell-based
# [7] = biological target: T2, Progesterone receptor (Homo sapiens) (UniProt P06401); experiment: Antagonist activity at progesterone receptor in human HEK293T cells assessed as reduction in […] luciferase activity by dual-Glo luciferase assay; type: cell-based
# T2 sequence (whole entry): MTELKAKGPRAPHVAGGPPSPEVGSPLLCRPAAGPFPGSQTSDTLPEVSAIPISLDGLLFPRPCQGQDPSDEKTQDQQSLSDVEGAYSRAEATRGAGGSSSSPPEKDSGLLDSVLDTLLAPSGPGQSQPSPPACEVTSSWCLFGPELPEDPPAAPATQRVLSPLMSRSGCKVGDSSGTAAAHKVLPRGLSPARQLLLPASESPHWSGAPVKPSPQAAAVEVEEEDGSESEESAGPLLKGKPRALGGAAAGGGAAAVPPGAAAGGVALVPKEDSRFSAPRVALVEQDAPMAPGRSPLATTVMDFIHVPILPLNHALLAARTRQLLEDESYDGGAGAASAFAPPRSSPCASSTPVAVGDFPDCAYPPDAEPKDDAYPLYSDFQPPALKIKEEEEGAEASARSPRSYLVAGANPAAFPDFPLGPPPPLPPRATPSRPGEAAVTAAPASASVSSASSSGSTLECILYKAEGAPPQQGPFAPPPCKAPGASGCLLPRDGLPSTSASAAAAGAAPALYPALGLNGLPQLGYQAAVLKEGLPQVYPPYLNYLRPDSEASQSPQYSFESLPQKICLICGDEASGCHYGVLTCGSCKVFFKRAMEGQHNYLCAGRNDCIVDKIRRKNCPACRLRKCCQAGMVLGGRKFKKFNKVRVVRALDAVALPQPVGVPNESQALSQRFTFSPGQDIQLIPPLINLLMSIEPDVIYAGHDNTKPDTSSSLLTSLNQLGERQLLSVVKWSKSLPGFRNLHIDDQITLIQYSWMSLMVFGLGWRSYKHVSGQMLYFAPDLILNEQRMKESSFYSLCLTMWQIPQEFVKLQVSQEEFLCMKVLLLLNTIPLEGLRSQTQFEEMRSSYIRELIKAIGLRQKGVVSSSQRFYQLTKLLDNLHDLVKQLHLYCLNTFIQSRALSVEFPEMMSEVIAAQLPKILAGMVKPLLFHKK
# [8] = biological target: T2, Progesterone receptor (Homo sapiens); experiment: Agonist activity at progesterone receptor in human HEK293T cells by dual-Glo luciferase assay; type: cell-based
smiles,measurement,setting,value
O=c1cc(C(F)(F)F)c2ccc(OCc3ccc(Br)cc3)cc2o1,Activity,[1],Dose-dependent effect
same,Activity,[2],Active
same,Activity,[3],Active
same,Activity,[4],inactive
same,Activity,[5],inactive
same,Activity,[6],inactive
same,Activity,[7],inactive
same,Activity,[8],inactive

# Reference: ChEMBL document CHEMBL5055679, “Discovery of a Novel Androgen Receptor Antagonist Manifesting Evidence to Disrupt the Dimerization of the Ligand-Binding Domain via Attenuating the Hydrogen-Bonding Network Between the Two Monomers” (J Med Chem, 2021)
